# In patent US6972319B1, “Pituitary adenylate cyclase activating peptide (PACAP)receptor 3 (R3) agonists and their pharmacological methods of use” (priority 1999, dated 2005):
# No end group written: not given here.
# Assays:
# PACAP-R2 = biological target: T1, PACAP-R2 (Homo sapiens, UniProt P32241); experiment: Cyclic AMP SPA on CHO cells transfected with PACAP-R2; assay type: cell-based; conditions: cAMP SPA, concentration at which 50% of maximum PACAP27 activity is achieved, NA = no detectable activities, read-out: R2 EC50
# T1 construct: expressed in transfected cells; host or cells: CHO cells
# T1 sequence (P32241 31-457): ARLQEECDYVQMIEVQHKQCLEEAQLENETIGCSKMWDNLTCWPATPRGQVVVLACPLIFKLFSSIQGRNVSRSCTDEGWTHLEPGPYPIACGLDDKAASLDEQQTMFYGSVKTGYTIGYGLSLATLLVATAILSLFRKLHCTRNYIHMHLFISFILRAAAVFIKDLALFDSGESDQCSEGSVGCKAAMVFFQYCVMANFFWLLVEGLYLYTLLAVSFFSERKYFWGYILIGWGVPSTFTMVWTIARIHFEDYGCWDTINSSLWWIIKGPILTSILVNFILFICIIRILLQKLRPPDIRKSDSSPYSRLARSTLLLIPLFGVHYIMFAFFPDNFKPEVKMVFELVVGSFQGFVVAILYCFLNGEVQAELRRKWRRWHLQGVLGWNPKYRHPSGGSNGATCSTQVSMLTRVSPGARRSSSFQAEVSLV
# Outline: (§1)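 Receptor-transfected CHO cells are stimulated with peptide for 15 min at 37 C in the presence of phosphodiesterase inhibitor IBMX (100 uM), bacitracin and soybean trypsin inhibitor; cAMP is then read by scintillation proximity.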
# PACAP-R3 = biological target: T2, PACAP-R3 (Homo sapiens, UniProt P41587); experiment: Cyclic AMP SPA on CHO cells expressing PACAP R3; assay type: cell-based; parameters: expressed in transfected cells; host or cells: CHO cells (Geneticin selection); conditions: for EC50: cAMP SPA, CHO cells transfected with PACAP-R3, concentration at which 50% of maximum PACAP27 activity is achieved, NA = no detectable activities, read-out: R3 EC50; for R3 Selectivity: ratio of EC50 at R2 versus EC50 at R3
# T2 sequence (P41587 24-438): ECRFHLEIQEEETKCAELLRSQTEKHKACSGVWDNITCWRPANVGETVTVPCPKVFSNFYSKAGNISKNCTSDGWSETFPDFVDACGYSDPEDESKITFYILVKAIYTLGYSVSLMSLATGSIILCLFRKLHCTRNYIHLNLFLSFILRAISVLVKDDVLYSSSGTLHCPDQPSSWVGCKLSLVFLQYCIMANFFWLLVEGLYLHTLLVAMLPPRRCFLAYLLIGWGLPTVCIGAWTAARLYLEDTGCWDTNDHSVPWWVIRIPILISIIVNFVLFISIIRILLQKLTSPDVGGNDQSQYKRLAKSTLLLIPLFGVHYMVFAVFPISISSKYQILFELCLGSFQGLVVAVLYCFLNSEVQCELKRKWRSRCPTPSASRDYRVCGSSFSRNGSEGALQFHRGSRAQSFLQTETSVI
# Outline: as §1
Sequence,EC50 (PACAP-R2) [nM],EC50 (PACAP-R3) [nM],R3 Selectivity (PACAP-R3)
HSDAVFTDNYTRLRKQMAAKKYLNSIKNHR [Peptide R3P140],15,0.3,50
HSDAVFTDNYTRLRKQMAAKKYLNSIKNIR [Peptide R3P141],20,0.2,100
HSDAVFTDNYTRLRKQMAAKKYLNSIKNKA [Peptide R3P153],40,0.2,200
HSDAVFTDNYTRLRKQMAAKKYLNSIKNKE [Peptide R3P156],100,1,100
HSDAVFTDNYTRLRKQMAAKKYLNSIKNKF [Peptide R3P157],50,0.3,170
HSDAVFTDNYTRLRKQMAAKKYLNSIKNKG [Peptide R3P158],6,0.07,90
HSDAVFTDNYTRLRKQMAAKKYLNSIKNKI [Peptide R3P160],100,0.2,500
HSDAVFTDNYTRLRKQMAAKKYLNSIKNKK [Peptide R3P161],60,0.2,300
HSDAVFTDNYTRLRKQMAAKKYLNSIKNKN [Peptide R3P164],100,0.3,300
HSDAVFTDNYTRLRKQMAAKKYLNSIKNKP [Peptide R3P165],150,0.5,300
HSDAVFTDNYTRLRKQMAAKKYLNSIKNKR [Peptide R3P65],80,0.6,130
HSDAVFTDNYTRLRKQMAAKKYLNSIKNKT [Peptide R3P168],60,0.2,300
HSDAVFTDNYTRLRKQMAAKKYLNSIKNKV [Peptide R3P169],60,0.2,300
HSDAVFTDNYTRLRKQMAAKKYLNSIKNLR [Peptide R3P142],6,0.2,30
HSDAVFTDNYTRLRKQMAAKKYLNSIKNMR [Peptide R3P143],6,0.2,30
HSDAVFTDNYTRLRKQMAAKKYLNSIKNNR [Peptide R3P144],300,3,100
HSDAVFTDNYTRLRKQMAAKKYLNSIKNPR [Peptide R3P145],50,0.5,100
HSDAVFTDNYTRLRKQMAAKKYLNSIKNQR [Peptide R3P146],30,0.3,100
HSDAVFTDNYTRLRKQMAAKKYLNSIKNRI [rR3P174],18,0.2,90
HSDAVFTDNYTRLRKQMAAKKYLNSIKNRR [Peptide R3P147],100,0.2,500
HSDAVFTDNYTRLRKQMAAKKYLNSIKNSR [Peptide R3P148],30,0.3,100
HSDAVFTDNYTRLRKQMAAKKYLNSIKNTR [Peptide R3P149],40,0.5,80
HSDAVFTDNYTRLRKQMAAKKYLNSIKNVR [Peptide R3P150],40,0.8,50
HSDAVFTDNYTRLRKQMAAKKYLNSILK [Peptide R3P50],0.7,0.13,6
HSDAVFTDNYTRLRKQMAAKKYLNSILN [Peptide R3P47],0.7,0.12,6
HSDAVFTDNYTRLRKQMAAKKYLNSINNKR [Peptide R3P125],60,2,30
HSDAVFTDNYTRLRKQMAAKKYLNSIPNKR [Peptide R3P126],200,1,200
HSDAVFTDNYTRLRKQMAAKKYLNSIPNRI [rR3P179],230,1.5,150
